The values below come from patent publication US11253499B2, “Compounds” (priority 2017, dated 2022).

Experiment [1] has as its system Mycobacterium tuberculosis H37Rv in human macrophages THP-1.
Description: Mycobacterium tuberculosis In Vitro H37Rv in Human Macrophaqes THP-1 Inhibition Assay (Intracellular Assay)
Procedure was carried out as described in Sorrentino, F. et al. (2016) Antimicrob. Agents Chemother. 60 (1), 640-645 (supplemental material), except that before THP-1 infected cells were seeded in 384 well plates, infected macrophages were filtered in the last step of wash steps with a 40 um cell strainer to remove cell clumps and obtain single cell suspension.
The compounds of the examples were tested essentially in accordance with the above-mentioned assay (without the presence of ethionamide).
The test system of experiment [2] is M. tuberculosis H37Rv-GFP. The format is cell-based, Mycobacterium tuberculosis. As to conditions: read-out: EC50_H37Rv.

On to `O=C(CCC(F)(F)F)N1CC(c2cc(Cl)ccn2)C1` [Example 11, 1-[3-(4-chloro-2-pyridyl)azetidin-1-yl]-4,4,4-trifluoro-butan-1-one], for which, in experiment [1], the IC50 was in the range of 0.05 to 0.25 µM. Further, in experiment [2], the EC50 lay in the range of 0.05 to 0.25 µM.

Turning to `O=C(CCC(F)(F)F)N1CC(c2ccc(F)cc2F)C1` [Example 18, 1-[3-(2,4-difluorophenyl)azetidin-1-yl]-4,4,4-trifluoro-butan-1-one], the IC50 in experiment [1] is less than 0.05 µM. Further, the EC50 in experiment [2] was less than 0.05 µM.

What is called IC50 is the concentration that inhibits the measured activity by half. Low values mean greater potency, high ones weaker potency.
